Measurements: patent US9878984B2, “Anti-cancer compounds” (NORTHWESTERN UNIVERSITY, priority 2008, dated 2018)
Entries after “also recorded” stand apart in the source; their conditions may differ.

Tests used:
Format in all cases: cell-based, human
Chk2 = test: DNA damage response assay (pThr68-Chk2 / total Chk2 western blot); conditions: HeLa cells, [GI99%], 20 hr, normalized to mitoxantrone
Method: DNA Damage Response Assay: 250,000 HeLa cells were plated in 35 mm culture dishes and allowed to attach for 8 hr and were then treated with the [GI99%] of each compound for 20 hr (total media volume was […] with 1% DMSO). After treatment cells were lysed in 150 μL detergent buffer containing 1:100 v/v protease inhibitor cocktail (Sigma—St. Louis, Mo.). Lysates were run on denaturing 12% acrylamide gels and transferred to nitrocellulose membranes. The membranes were blocked in blotto, incubated in anti-pThr68-Chk2 antibody (Cell Signaling—Danvers, Mass.) at 1:500 v/v dilution in blotto overnight 4° C., washed, incubated in HRP conjugated anti-rabbit secondary antibody (Jackson) at 1:5,000 v/v dilution in blotto for 1 hr, and then developed. The membranes were then stripped with a reducing buffer, blocked in blotto, incubated in anti-Chk2 antibody (Biolegend—San Diego, Calif.) at 1:500 v/v dilution in blotto overnight at 4° C., washed, incubated in HRP conjugated anti-mouse secondary antibody (Jackson) at 1:5,000 v/v dilution in blotto for 1 hr, and then developed. Membranes were developed with PicoWest Developing Solution (Pierce) and exposed to film. The intensities of bands were quantified as described in the previous section. The data are expressed as the average ratio of pThr68-Chk2 to total Chk2 as normalized to the mitoxantrone control in each of three independent experiments.
Topoisomerase inhibition by most mechanisms should cause activation of DNA damage response pathways because of the production of single and double strand DNA breaks, as is the case with amonafide. […] Therefore, measuring the DNA damage response at a fixed cytotoxic dose ([GI99%]) will determine the extent that DNA damage contributes to the cytotoxicity of these compounds. […] Activation of Chk2 was determined by measuring the ratio of pThr68-Chk2 to total Chk2 in HeLa cells treated with the [GI99%].

HeLa cells [1] = test: Transwell invasion assay; conditions: [GI99%], matrigel, 20 hr
Method: Transwell Invasion Assay: HeLa cells were plated at 250,000 per 35 mm well and allowed to attach for 8 hr. The cells were washed with PBS and then treated for 4 hr with the [GI99%] of each compound (or 1% DMSO—vehicle control) in serum free media to decrease the number of invading cells in the beginning of the experiment due to a preliminary lack of drug exposure. The cells were then trypsinized and counted by trypan blue exclusion with a hemacytometer (Sigma—St. Louis, Mo.). Eight micron pore size control well inserts for 12 well plates (BD Biosciences) were coated with 100 μL 1 mg/mL matrigel (Sigma—St. Louis, Mo.) and allowed to solidify at room temperature for 1 hr. The excess matrigel was aspirated and the inserts were gently washed with PBS. The cells were seeded at a density of 300,000 per insert well in a volume of 500 μL serum free media containing a derivative or vehicle. The inserts were then placed in wells containing 700 μL serum free media with the respective compound. After 20 hr the cells on the top of the membranes were gently removed with a cotton swab, the membranes then were fixed in methanol for 1 min, stained in Gills No. 3 Hematoxylin (Sigma—St. Louis, Mo.) for 5 min, rinsed in tap water, and allowed to dry overnight. The membranes were excised, mounted on slides, and the cells were counted under the 40× objective of a bright field microscope. The data are expressed as the average total number of invading cells counted in 20 fields of each membrane, as standardized to the vehicle control, from six experiments.
Effect of derivatives on the malignant phenotype—invasion assay: If A1-A9 have differential targets, DNA binding specificity, or downstream effects they may differentially alter the malignant behavior of cells. Also, anti-cancer compounds can be efficacious against tumors in other ways besides inhibiting growth and inducing death of cancer cells; they can also alter the behavior of malignant cells. Therefore, the ability of A1-A9 and amonafide to alter the invasive behavior of cancer cells in a transwell (also known as Boyden chamber) invasion assay was evaluated, which determines the ability of cells to migrate through a proteinacious gel. This behavior is considered to be representative of cancer cell invasion through the basement membrane of the primary tumor environment. In this assay, treated cells are seeded on to the top of the matrigel-coated porous membrane, allowed to invade through the proteinacious gel onto the underside of the membrane, and then counted.

HeLa cells [2] = test: Perinucleolar compartment (PNC) prevalence reduction; conditions: [GI50%] for 72 hr
Method: Perinucleolar Compartment (PNC) Reduction: HeLa cells (PNC prevalence ˜85%) were plated 5,000/well in glass bottom 96 well plates and allowed to attach for 8 hr. The cells were then treated with compounds at the respective [GI50%] for 72 hr and [GI99%] for 20 hr for each compound (total media volume was 200 μL/well with 1% DMSO). After treatment cells were immunofluorescently stained as previously described, but with a Texas Red labeled secondary antibody (Jackson) instead of a FITC labeled secondary antibody. PNC prevalence (% of non-apoptotic/non-mitotic cells with 1 or more PNCs) was determined by scoring >200 cells per well with fluorescent microscope (60× objective) and images were acquired with the digital camera and image acquisition software previously mentioned. Scale bar=10 μm. Data are expressed as the average PNC prevalence (% control) of three individual experiments.
The PNC is a unique structural marker that it is only found in malignantly transformed cancer cells, irrespective of tissue origin, and indicates cells that are capable of metastasis. […] Previous studies indicate that the PNC likely conveys a functional metastatic advantage to cancer cells. The PNC prevalence (% of cells with one or more PNC) in human breast cancer positively correlates with the progression of the disease and is always near 100% in distant metastases. […] The PNC prevalence reduction was determined for amonafide and A1-A9 at the respective [GI50%] and [GI99%] doses in HeLa cells, which have a high PNC prevalence of ˜85%.

HeLa cells [3] = test: MTS growth inhibition assay, HeLa cells; conditions: concentration used in topo II assay
Method: Cell Culture: HeLa (cervical carcinoma), WI-38 (normal human […] fibroblasts), and MDA-MB-231 (breast carcinoma), cells were cultured in DMEM (Invitrogen—Carlsbad, Calif.) and PC-3M (metastatic prostate carcinoma) cells were cultured in RPMI-1640. Peripheral blood mononuclear cells (PBMCs) were voluntarily collected from a healthy laboratory worker by standard sterile phlebotomy techniques and isolated using Vacutainer CPT collection tubes (BD Biosciences—Bedford, Mass.). PBMCs were isolated freshly for each experiment. All DMEM and RPMI-1640 media was supplemented with 10% FBS (Atlanta Biologicals—Lawrenceville, Ga.) and 100 U/mL penicillin and streptomycin (Invitrogen). HUVEC (Human umbilical vein endothelial cells) were cultured in EGM-2 media with supplements provided in the manufacturers BulletKit (Lonza—Walersville, Md.). All cells were maintained at 37° C. and in a 5% CO2 atmosphere.
Growth Inhibition Assays: HeLa, MDA-MB-231, PC-3M, WI-38, and HUVEC cells were plated at 5,000 cells per well in 96 well plates and allowed to attach for 20 hr (8 hr for HeLa). The media was removed and 198 μL of fresh media was added to each well. […] Cell proliferation was measured at t=0 (time at start of treatment) and t=72 hr using MTS AQueous non-radioactive proliferation assay (Promega—Madison, Wis.). […] The absorbance at 490 nm in each well was read with a Spectramax 250 plate reader (Molecular Devices—Sunnyvale, Calif.). […] Data were fit to one site dose response curves in order to obtain specific growth inhibitory concentrations and the relative standard errors of the mean for these concentrations were calculated by the XLfit4 software. Statistical significance (p value) for the selectivity and all subsequent assays was determined with the two tailed homoscedastic Student's t-test. […]

[4] = test system: topoisomerase II (topo II); test: Topoisomerase II inhibition assay (topo II-DNA cleavable complexes in treated cells); conditions: HeLa cells, [GI99%], 20 hr, normalized to mitoxantrone
Method: In Vitro Topoisomerase Inhibition: HeLa cells were plated at a density of 1.5 million in 35 mm wells and allowed to attach for 20 hr. They were then treated with each compound at the [GI99%] in 10 mL media for 20 hr. In vitro topoisomerase II inhibition was quantified using TopoGEN's Topoisomerase II In vivo Link Kit according to the protocol included with the kit and according to a previously published protocol [24] with slight modifications. In summary, DNA was isolated from sarkosyl lysed cells, layered on a cesium chloride gradient (total volume ˜7 mL), ultra-centrifuged, and then fractionated to 0.5 mL. The fractions were diluted 1:4 v/v in PBS and the fractions containing the genomic DNA were determined by measuring the absorbance at 260 nm for each fraction. The fractions were then loaded into a slot blotting apparatus and pulled through a nitrocellulose membrane by vacuum. The membrane was blocked in 5% w/v milk in 1×TBST (blotto) for 2 hr, incubated in 1:5,000 v/v topoisomerase II (topo II) primary antibody (TopoGEN) in blotto for 1 hr, washed, and incubated in 1:2,000 v/v HRP conjugated anti-rabbit secondary antibody (Jackson—West Grove, Pa.) in blotto for 45 min, washed and developed with SuperSignal West Pico Chemiluminescent Substrate (Pierce—Rockford, Ill.). The data were processed by dividing the intensity of the 2 or 3 most intense topo II immuno-reactive bands by the amount of DNA in the respective fractions. The band intensity was determined by scanning the developed films with a Kodak Image Station 440 CF and measuring the average pixel intensity of an area slightly larger than each band and subtracting the median background pixel intensity of the perimeter of the same area using Kodak MI software. Etoposide (TopoGEN) and mitoxantrone (Sigma—St. Louis, Mo.) are topo II inhibitors used as positive controls. […] Data were standardized to mitoxantrone in each of three independent experiments. […]

SMILES	invasive behavior (% invading cells vs vehicle) (HeLa cells [1])	[IC99%] (HeLa cells [3]) [µM]	stabilization of topo II-DNA cleavable complexes [4]	also measured
CCCNc1ccc2c3c(cccc13)C(=O)N(CCN(C)C)C2=O [A2, 6-propylamino-2-[2-(dimethylamino)ethyl]-1H-benz[de]isoquinoline-1,3(2H)-dione]				DNA damage response (ratio of pThr68-Chk2 to total Chk2) (Chk2): evoked the strongest DNA damage response
C=CCNc1ccc2c3c(cccc13)C(=O)N(CCN(C)C)C2=O [A3, 6-allylamino-2-[2-(dimethylamino)ethyl]-1H-benz[de]isoquinoline-1,3(2H)-dione]	did not significantly alter the invasive behavior of HeLa cells compared to the control			
COCCNc1ccc2c3c(cccc13)C(=O)N(CCN(C)C)C2=O [A4, 6-methoxyethylamino-2-[2-(dimethylamino)ethyl]-1H-benz[de]isoquinoline-1,3(2H)-dione]	greatly decreases invasion compared to amonafide and control			PNC prevalence reduction at [GI50%] (HeLa cells [2]): able effectively reduce the PNC; also recorded: reduces PNC prevalence to the same extent as amonafide; also recorded: can significantly reduce PNC prevalence
CCN(CC)c1ccc2c3c(cccc13)C(=O)N(CCN(C)C)C2=O [A8, 6-diethylamino-2-[2-(dimethylamino)ethyl]-1H-benz[de]isoquinoline-1,3(2H)-dione]	did not significantly alter the invasive behavior of HeLa cells compared to the control			
CC[C@@]1(O)C(=O)OCc2c1cc1n(c2=O)Cc2cc3ccccc3nc2-1 [camptothecin]		0.28	did not cause the stabilization of topo II-DNA cleavable complexes	
COc1cc([C@@H]2c3cc4c(cc3[C@@H](O[C@@H]3O[C@@H]5CO[C@@H](C)O[C@H]5[C@H](O)[C@H]3O)[C@H]3COC(=O)[C@H]23)OCO4)cc(OC)c1O [etoposide]		9.62	caused formation of abundant drug stabilized topo II-DNA cleavable complexes	
O=C1c2c(O)ccc(O)c2C(=O)c2c(NCCNCCO)ccc(NCCNCCO)c21 [mitoxantrone]		1.01	caused formation of abundant drug stabilized topo II-DNA cleavable complexes	
